How the values were obtained:
[1] = mn = molality of the nth substance listed, in mol/kg; conditions: 86.8 kPa, Liquid; for viscosity: Capillary tube (Ostwald / Ubbelohde) method; for speed of sound: Sing-around technique in a fixed-path interferometer; for mass density: Vibrating tube method
[2] = refractive index (Na D-line) (dimensionless); mn = molality of the nth substance listed, in mol/kg; conditions: 86.8 kPa, Liquid, Standard Abbe refractometry

CC(=O)Oc1ccccc1C(=O)O [2-acetoxybenzoic acid] + CC#N
Conditions | mass density, [1] [kg/m3] | refractive index, [2] | speed of sound, [1] [m/s] | viscosity, [1] [mPa·s]
288.15 K, m1 = 0.0402 | 789.756 | 1.3467 | 1319.9 | 0.394
288.15 K, m1 = 0.0834 | 792.285 | 1.3476 | 1320.3 | 0.398
288.15 K, m1 = 0.11 | 793.822 | 1.3483 | 1320.6 | 0.402
288.15 K, m1 = 0.1394 | 795.495 | 1.349 | 1320.8 | 0.405
288.15 K, m1 = 0.1708 | 797.242 | 1.3498 | 1321.1 | 0.408
288.15 K, m1 = 0.2076 | 799.277 | 1.3505 | 1321.4 | 0.412
288.15 K, m1 = 0.2453 | 801.312 | 1.3513 | 1321.8 | 0.416
288.15 K, m1 = 0.2705 | 802.661 | 1.3519 | 1322 | 0.419
288.15 K, m1 = 0.3006 | 804.272 | 1.3527 | 1322.2 | 0.422
298.15 K, m1 = 0.0402 | 778.992 | 1.3422 | 1279.3 | 0.349
298.15 K, m1 = 0.0834 | 781.508 | 1.3431 | 1279.7 | 0.353
298.15 K, m1 = 0.11 | 783.035 | 1.3439 | 1279.9 | 0.355
298.15 K, m1 = 0.1394 | 784.705 | 1.3446 | 1280.2 | 0.358
298.15 K, m1 = 0.1708 | 786.446 | 1.3453 | 1280.4 | 0.362
298.15 K, m1 = 0.2076 | 788.483 | 1.3462 | 1280.7 | 0.365
298.15 K, m1 = 0.2453 | 790.515 | 1.347 | 1281 | 0.369
298.15 K, m1 = 0.2705 | 791.87 | 1.3477 | 1281.2 | 0.371
298.15 K, m1 = 0.3006 | 793.487 | 1.3484 | 1281.5 | 0.375
308.15 K, m1 = 0.0402 | 768.176 | 1.3378 | 1239 | 0.316
308.15 K, m1 = 0.0834 | 770.675 | 1.3388 | 1239.3 | 0.319
308.15 K, m1 = 0.11 | 772.198 | 1.3397 | 1239.5 | 0.322
308.15 K, m1 = 0.1394 | 773.857 | 1.3404 | 1239.7 | 0.325
308.15 K, m1 = 0.1708 | 775.597 | 1.3412 | 1240 | 0.328
308.15 K, m1 = 0.2076 | 777.624 | 1.3423 | 1240.3 | 0.331
308.15 K, m1 = 0.2453 | 779.658 | 1.3431 | 1240.5 | 0.334
308.15 K, m1 = 0.2705 | 781.016 | 1.3438 | 1240.8 | 0.337
308.15 K, m1 = 0.3006 | 782.624 | 1.3446 | 1241 | 0.34
318.15 K, m1 = 0.0402 | 757.205 | 1.3333 | 1198.8 | 0.292
318.15 K, m1 = 0.0834 | 759.697 | 1.3345 | 1199.2 | 0.295
318.15 K, m1 = 0.11 | 761.21 | 1.3352 | 1199.3 | 0.297
318.15 K, m1 = 0.1394 | 762.869 | 1.3359 | 1199.5 | 0.3
318.15 K, m1 = 0.1708 | 764.615 | 1.3367 | 1199.7 | 0.303
318.15 K, m1 = 0.2076 | 766.635 | 1.3377 | 1199.9 | 0.306
318.15 K, m1 = 0.2453 | 768.667 | 1.3388 | 1200.2 | 0.309
318.15 K, m1 = 0.2705 | 770.017 | 1.3395 | 1200.4 | 0.311
318.15 K, m1 = 0.3006 | 771.63 | 1.3403 | 1200.7 | 0.314

— the NIST ThermoML archive (doi:10.1021/je5008372)
